# Earlier results, collected in US20240016859A1, “MICROENCAPSULATED AND CHROMOSOME INTEGRATED COMPOSITIONS FOR L-DOPA MICROBIOME THERAPY” (Iowa State University Research Foundation, Inc., priority 2020, published 2024).
smiles,measurement,value
"N[C@@H](Cc1ccc(O)c(O)c1)C(=O)O [Levodopa, (−)-L-a-amino-b-(3,4-dihydroxybenzene)propanoic acid]",solubility in water,slightly soluble
